Results: the supplement of paper PMC4862054

Assays:
Conditions in all cases: 72 h
HCC1599 = tested on: HCC1599
Protocol: (§1)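 Drug sensitivity and resistance testing (DSRT) of breast cancer cell lines in 384-well plates, 5 concentrations in 10-fold dilutions over a compound-specific 10,000-fold range. After 72 h, cytotoxicity was read by CellTox Green fluorescence and viability by CellTiter-Glo luminescence (multiplexed), normalised to DMSO and benzethonium chloride controls. EC50 is the inflection point of the fitted dose-response curve (bottom asymptote free, so it can be relative for partial curves) and is censored at the highest tested concentration. Rows with DSS 0 (no meaningful response) were excluded.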

MDA-MB-453 = tested on: MDA-MB-453
Protocol: as §1

BT-549 = tested on: BT-549
Protocol: as §1

HCC1143 = tested on: HCC1143
Protocol: as §1

HDQ-P1 = tested on: HDQ-P1
Protocol: as §1

Row | Structure (SMILES) | EC50, CellTox Green (HCC1599) [nM] | EC50, CellTox Green (MDA-MB-453) [nM] | EC50, CellTox Green (BT-549) [nM] | EC50, CellTox Green (HCC1143) [nM] | EC50, CellTox Green (HDQ-P1) [nM]
1 | COc1cc(OC2CCN(C)CC2)ccc1Nc1ncc2c(n1)n(C1CCCC1)c(=O)n2C [AZ 3146] | > 10000 | – | – | – | –
2 | O=C(/C=C/c1cccc(S(=O)(=O)Nc2ccccc2)c1)NO [Belinostat] | – | > 10000 | – | – | –
3 | Nc1cc(C(F)(F)F)c(-c2cc(N3CCOCC3)nc(N3CCOCC3)n2)cn1 [Buparlisib] | – | – | 7700 | – | –
4 | CCOC(=O)CCNc1cc(N2CCc3ccccc3CC2)nc(-c2ccccn2)n1 [GSK-J4] | 5440 | 22600 | 17800 | 321 | 9770
5 | Cc1ccc(NC(=O)c2ccc(CN3CCN(C)CC3)cc2)cc1Nc1nc(-c2cccnc2)cs1 [Masitinib] | 8820 | – | – | – | –
6 | COC(=O)c1ccc2c(c1)NC(=O)/C2=C(\Nc1ccc(N(C)C(=O)CN2CCN(C)CC2)cc1)c1ccccc1 [Nintedanib] | – | – | 6880 | – | –
7 | Cc1[nH]c2ccccc2c1CCNCc1ccc(/C=C/C(=O)NO)cc1 [Panobinostat] | 112 | 43 | – | 71.7 | 193
8 | CO[C@H]1C[C@@H]2CC[C@@H](C)[C@@](O)(O2)C(=O)C(=O)N2CCCC[C@H]2C(=O)O[C@H]([C@H](C)C[C@@H]2CC[C@@H](OP(C)(C)=O)[C@H](OC)C2)CC(=O)[C@H](C)/C=C(\C)[C@@H](O)[C@@H](OC)C(=O)[C@H](C)C[C@H](C)/C=C/C=C/C=C/1C [Ridaforolimus] | – | – | – | – | 0.35
9 | CC(C)C[C@@H](C(=O)N[C@H](C(=O)OC1CCCC1)c1ccccc1)[C@H](O)C(=O)NO [Tosedostat] | – | – | 1390 | 7200 | 851
10 | COc1cc2c(NC3CCN(C(C)C)CC3)nc(N3CCC(F)(F)CC3)nc2cc1OCCCN1CCCC1 [UNC0642] | – | 7170 | – | – | –
11 | COCC[n+]1c2c(n(Cc3cnccn3)c1C)C(=O)c1ccccc1C2=O [YM155] | 58.5 | 347 | 272 | 1.59 | 33
